Experimental findings from US20240270821A1, “GIP/GLP1/GCG TRI-RECEPTOR AGONISTS AND USES THEREOF” (priority 2023, published 2024) are described below.

Type in all cases: cell-based
For one assay, the target named is hGcgR (Homo sapiens, UniProt P47871). Briefly: Functional cAMP activation in the presence of 0.1% casein (no HSA). Conditions: read-out: Relative cAMP EC50, hGcgR.
The next assay addresses human GcgR (Homo sapiens, UniProt P47871). The assay is described as follows: Functional cAMP activity in the presence of 1% HSA. As to conditions: read-out: cAMP Rel EC50, hGcgR.
The target in assay [1] is T1, hGLP-1R (Homo sapiens, UniProt P43220). The assay is described as follows: Functional cAMP activation in the presence of 0.1% casein (no HSA). Conditions: read-out: Relative cAMP EC50, hGLP-1R.
The target in assay [2] is T2, hGIPR (Homo sapiens, UniProt P48546).
T2 sequence (P48546 22-466): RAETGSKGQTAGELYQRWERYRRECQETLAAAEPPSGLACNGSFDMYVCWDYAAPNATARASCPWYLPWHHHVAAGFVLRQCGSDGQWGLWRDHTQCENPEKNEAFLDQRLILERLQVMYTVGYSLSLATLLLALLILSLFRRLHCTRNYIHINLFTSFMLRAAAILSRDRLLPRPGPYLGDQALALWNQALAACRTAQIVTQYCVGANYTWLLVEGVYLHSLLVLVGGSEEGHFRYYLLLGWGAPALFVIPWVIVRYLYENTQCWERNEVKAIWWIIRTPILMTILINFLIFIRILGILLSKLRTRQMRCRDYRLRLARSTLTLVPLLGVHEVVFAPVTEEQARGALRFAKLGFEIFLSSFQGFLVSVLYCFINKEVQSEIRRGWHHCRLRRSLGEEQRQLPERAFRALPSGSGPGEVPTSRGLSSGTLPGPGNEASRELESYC
The assay is described as follows: Functional cAMP activity in the presence of 1% HSA. As to conditions: read-out: cAMP Rel EC50, hGIPR.

In assay [3] the target is T1, hGLP-1R. Briefly: Functional cAMP activity in the presence of 1% HSA. Conditions: read-out: cAMP Rel EC50, hGLP-1R.
In assay [4] the target is T2, hGIPR. Briefly: Functional cAMP activation in the presence of 0.1% casein (no HSA). As to conditions: read-out: Relative cAMP EC50, hGIPR.
[5] abbreviates: in the presence of 0.1% casein (no HSA), geometric mean.

As a reminder, the EC50 is the concentration at which the effect is half-maximal.

Like-named read-outs stand apart in the source and are kept apart here. Starred links: 1 amine or outer side, 2 acyl side, 3 side chain; linkers in the order of their positions; H or OH if unused. Non-standard residues stand in square brackets, D forms with d. Residues, ends and D or L forms follow the SMILES beside them. Groups on a side chain read outwards from the residue. No end group written: not given here. *: point of attachment. C20 diacid = O=C(O)CCCCCCCCCCCCCCCCCCC(=O)*; C18 diacid = O=C(O)CCCCCCCCCCCCCCCCC(=O)*; αMePhe(2-F) = C[C@](N)(Cc1ccccc1F)C(=O)O; γGlu = O=C(O)[C@H](CCC(=O)[*:2])N[*:1]; αMe4Pal = C[C@](N)(Cc1ccncc1)C(=O)O; αMeY = C[C@](N)(Cc1ccc(O)cc1)C(=O)O; 4Pal = N[C@@H](Cc1ccncc1)C(=O)O; αMeL = CC(C)C[C@](C)(N)C(=O)O; αMeS = C[C@](N)(CO)C(=O)O; Orn = NCCC[C@H](N)C(=O)O; Dap = NC[C@H](N)C(=O)O; AEEA = NCCOCCOCC(=O)O; Aib = CC(C)(N)C(=O)O
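Throughout, for Relative cAMP EC50, hGIPR: intracellular cAMP rise after 30 min at 37 °C read by HTRF against a standard curve, scaled between buffer alone (0%) and top control ligand concentration (100%), four-parameter fit.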
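Throughout, for Relative cAMP EC50, hGLP-1R: intracellular cAMP rise after 30 min at 37 °C read by HTRF, normalized between buffer only (0%) and maximal control ligand (100%), four-parameter variable-slope fit.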
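Throughout, for Relative cAMP EC50, hGcgR: intracellular cAMP rise after 30 min at 37 °C, read by HTRF against a cAMP standard curve, scaled from buffer only (0%) to maximal control ligand response (100%).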

T1 sequence (P43220 24-463): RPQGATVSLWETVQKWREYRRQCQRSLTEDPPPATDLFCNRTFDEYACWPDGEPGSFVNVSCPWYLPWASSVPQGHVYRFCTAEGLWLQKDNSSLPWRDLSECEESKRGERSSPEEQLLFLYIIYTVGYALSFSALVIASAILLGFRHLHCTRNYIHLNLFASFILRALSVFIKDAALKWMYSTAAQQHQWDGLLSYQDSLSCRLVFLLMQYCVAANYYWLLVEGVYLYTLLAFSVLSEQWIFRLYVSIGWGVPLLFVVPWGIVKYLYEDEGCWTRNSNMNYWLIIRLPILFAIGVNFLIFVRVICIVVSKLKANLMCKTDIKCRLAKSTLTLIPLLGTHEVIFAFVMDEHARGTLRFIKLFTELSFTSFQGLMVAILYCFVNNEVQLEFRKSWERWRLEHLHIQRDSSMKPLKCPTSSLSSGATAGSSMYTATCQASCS
Sequence of human GcgR (P47871 26-477): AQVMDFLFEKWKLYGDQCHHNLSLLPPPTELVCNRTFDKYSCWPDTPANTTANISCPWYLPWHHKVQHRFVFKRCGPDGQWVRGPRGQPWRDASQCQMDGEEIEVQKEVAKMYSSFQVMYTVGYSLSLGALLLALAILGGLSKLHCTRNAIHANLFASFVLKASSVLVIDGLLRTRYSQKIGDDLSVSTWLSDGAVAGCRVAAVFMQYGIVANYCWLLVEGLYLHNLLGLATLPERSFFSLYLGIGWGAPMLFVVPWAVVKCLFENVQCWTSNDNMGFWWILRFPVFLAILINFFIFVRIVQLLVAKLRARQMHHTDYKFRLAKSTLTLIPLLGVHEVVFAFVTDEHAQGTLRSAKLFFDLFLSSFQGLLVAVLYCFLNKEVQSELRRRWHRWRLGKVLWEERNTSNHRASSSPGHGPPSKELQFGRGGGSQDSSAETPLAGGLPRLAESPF
Sequence of hGcgR (P47871 26-477): as above

Consider “Y[Aib]QGT[αMePhe(2-F)]TSD[4Pal]SI[αMeL]LD[Orn]K([AEEA-γGlu-C18 diacid])AQ[αMe4Pal][Orn]FI[dE][αMeY]LIEGGPSSGEPPPEGTE-NH2 [Example 679]”, for which the EC50 is 3.22 nM on hGcgR; 188 nM on human GcgR; 0.255 nM at hGLP-1R [1]; 1.02 nM on hGIPR [2]; 21.6 nM at hGLP-1R [3]; 0.0123 nM at hGIPR [4].

With “Y[Aib]QGT[αMePhe(2-F)]TSD[4Pal][αMeS]I[αMeL]LD[Orn]K([γGlu-γGlu-C18 diacid])AQ[Aib][Orn]FI[dE][αMeY]LTEGGPSSGEPPPEGTEE-NH2 [Example 597]”, the concentration for a half-maximal effect (EC50) came out at 5.2 nM at hGcgR; 329 nM at human GcgR; 0.6 nM on hGLP-1R [1]; 2.38 nM on hGIPR [2]; 36.4 nM at hGLP-1R [3]; 0.0643 nM at hGIPR [4].

Take “H-Y[Aib]QGTFTSDFS[Orn][αMeL]LDKK([AEEA-γGlu-C20 diacid])AQ[Aib]AFIEYLLAGGPSSGAPPPSGS[AEEA]-NH2 [Example 83]”: the EC50 is 10.2 nM at hGcgR (setting [5]); 1270 nM at human GcgR; 2.85 nM on hGLP-1R [1] (setting [5]); 91.8 nM on hGIPR [2]; 653 nM at hGLP-1R [3]; 0.185 nM at hGIPR [4] (setting [5]).

For `CC[C@H](C)[C@H](NC(=O)[C@H](Cc1ccccc1)NC(=O)[C@H](C)NC(=O)C(C)(C)NC(=O)[C@H](CCC(N)=O)NC(=O)[C@H](C)NC(=O)[C@H](CCCCNC(=O)COCCOCCNC(=O)CC[C@H](NC(=O)CCCCCCCCCCCCCCCCC(=O)O)C(=O)O)NC(=O)[C@H](CCCCN)NC(=O)[C@H](CC(=O)O)NC(=O)[C@H](CC(C)C)NC(=O)[C@](C)(CC(C)C)NC(=O)[C@@H](NC(=O)[C@H](CO)NC(=O)[C@H](Cc1ccc(O)cc1)NC(=O)[C@H](CC(=O)O)NC(=O)[C@H](CO)NC(=O)[C@@H](NC(=O)[C@](C)(Cc1ccccc1F)NC(=O)[C@@H](NC(=O)CNC(=O)[C@H](CCC(N)=O)NC(=O)C(C)(C)NC(=O)[C@@H](N)Cc1ccc(O)cc1)[C@@H](C)O)[C@@H](C)O)[C@@H](C)CC)C(=O)N[C@@H](CCC(=O)O)C(=O)N[C@@H](Cc1ccc(O)cc1)C(=O)N[C@@H](CC(C)C)C(=O)N[C@@H](CCC(=O)O)C(=O)N[C@@H](CCC(=O)O)C(=O)NCC(=O)NCC(=O)N1CCC[C@H]1C(=O)N[C@@H](CO)C(=O)N[C@@H](CO)C(=O)NCC(=O)N[C@@H](C)C(=O)N1CCC[C@H]1C(=O)N1CCC[C@H]1C(=O)N1CCC[C@H]1C(=O)N[C@@H](CCC(=O)O)C(N)=O` [Example 400] (H-Y[Aib]QGT[αMePhe(2-F)]TSDYSI[αMeL]LDKK([AEEA-γGlu-C18 diacid])AQ[Aib]AFIEYLEEGGPSSGAPPPE-NH2), the EC50 on hGcgR amounted to 2.53 nM; at human GcgR, 265 nM; on hGLP-1R [1] it was 0.253 nM; on hGIPR [2], 3.86 nM; at hGLP-1R [3], 29.1 nM; on hGIPR [4], 0.0158 nM.

“Y[Aib]QGTFTSDFS[Orn][αMeL]LDKK([AEEA-γGlu-γGlu-C18 diacid])AQ[Aib]AFIEYLLAGGPSSGEPPPSGS-NH2 [Example 153]”: the EC50 at hGcgR (setting [5]) came to 14.7 nM; on human GcgR it was 1210 nM; at hGLP-1R [1] (setting [5]), 7.09 nM; at hGIPR [2], 16.8 nM; at hGLP-1R [3], 488 nM; at hGIPR [4] (setting [5]) it was 0.218 nM.

Turning to “H-Y[Aib]QGTFTSD[4Pal]S[Orn][αMeL]LD[Orn]K([dE-γGlu-C18 diacid])AQ[αMe4Pal]AFIEYLIAGGPSSGAPPPSGSEE-NH2 [Example 1063]”, the EC50 on hGcgR (setting [5]) is 10.6 nM; at human GcgR, 2290 nM; at hGLP-1R [1] (setting [5]) it was 6.96 nM; at hGIPR [2], 26.6 nM; on hGLP-1R [3] it was 626 nM; at hGIPR [4] (setting [5]) it was 0.318 nM.

Regarding `CC[C@H](C)[C@H](NC(=O)[C@H](Cc1ccccc1)NC(=O)[C@H](CCCN)NC(=O)C(C)(C)NC(=O)[C@H](CCC(N)=O)NC(=O)[C@H](C)NC(=O)[C@H](CCCCNC(=O)COCCOCCNC(=O)CC[C@H](NC(=O)CCCCCCCCCCCCCCCCC(=O)O)C(=O)O)NC(=O)[C@H](CCCN)NC(=O)[C@H](CC(=O)O)NC(=O)[C@H](CC(C)C)NC(=O)[C@](C)(CC(C)C)NC(=O)[C@@H](NC(=O)[C@H](CO)NC(=O)[C@H](Cc1ccncc1)NC(=O)[C@H](CC(=O)O)NC(=O)[C@H](CO)NC(=O)[C@@H](NC(=O)[C@](C)(Cc1ccccc1F)NC(=O)[C@@H](NC(=O)CNC(=O)[C@H](CCC(N)=O)NC(=O)C(C)(C)NC(=O)[C@@H](N)Cc1ccc(O)cc1)[C@@H](C)O)[C@@H](C)O)[C@@H](C)CC)C(=O)N[C@H](CCC(=O)O)C(=O)N[C@@](C)(Cc1ccc(O)cc1)C(=O)N[C@@H](CC(C)C)C(=O)N[C@@H](CC(C)C)C(=O)N[C@@H](CCC(=O)O)C(=O)NCC(=O)NCC(=O)N1CCC[C@H]1C(=O)N[C@@H](CO)C(=O)N[C@@H](CO)C(=O)NCC(=O)N[C@@H](CCC(=O)O)C(=O)N1CCC[C@H]1C(=O)N1CCC[C@H]1C(=O)N1CCC[C@H]1C(=O)N[C@@H](CCC(=O)O)C(N)=O` [Example 370] (H-Y[Aib]QGT[αMePhe(2-F)]TSD[4Pal]SI[αMeL]LD[Orn]K([AEEA-γGlu-C18 diacid])AQ[Aib][Orn]FI[dE][αMeY]LLEGGPSSGEPPPE-NH2), the 50% effective concentration (EC50) was found to be 7.06 nM at hGcgR (setting [5]); 803 nM on human GcgR; 0.406 nM at hGLP-1R [1] (setting [5]); 4.23 nM at hGIPR [2]; 37.5 nM on hGLP-1R [3]; 0.027 nM at hGIPR [4] (setting [5]).

For “H-Y[Aib]QGTFTSDFSK[αMeL]LDKK([AEEA-γGlu-C20 diacid])AQ[Aib]AFIEWLIEGGPSSGAPPPSEG-NH2 [Example 40]”, the EC50 came to 12.3 nM on hGcgR (setting [5]); 2750 nM on human GcgR; 0.693 nM at hGLP-1R [1] (setting [5]); 76.7 nM on hGIPR [2]; 138 nM on hGLP-1R [3]; 0.139 nM on hGIPR [4] (setting [5]).

As for “Y[Aib]Q[dA]T[αMePhe(2-F)]TSD[4Pal]SI[αMeL]LD[Orn]K([AEEA-γGlu-C18 diacid])AQ[αMe4Pal][Orn]FI[dE][αMeY]LIEGGPSSGEPPPESE-NH2 [Example 765]”, the EC50 on hGcgR worked out at 0.952 nM; at human GcgR, 111 nM; at hGLP-1R [1], 0.25 nM; at hGIPR [2], 44.6 nM; on hGLP-1R [3], 26.1 nM; on hGIPR [4], 0.0642 nM.

As to “H-Y[Aib]QGTFTSDFSK[αMeL]LDKK([AEEA-γGlu-C20 diacid])AQ[Aib]AFIEYLLAGGPSSGEPPPGGS-NH2 [Example 9]”, the EC50 at hGcgR (setting [5]) was determined as 7.19 nM; on human GcgR it was 1430 nM; on hGLP-1R [1] (setting [5]) it was 1.61 nM; at hGIPR [2], 41.8 nM; at hGLP-1R [3], 402 nM; on hGIPR [4] (setting [5]) it was 0.205 nM.

Take `CC[C@H](C)[C@H](NC(=O)[C@H](Cc1ccccc1)NC(=O)[C@H](C)NC(=O)[C@](C)(Cc1ccncc1)NC(=O)[C@H](CCC(N)=O)NC(=O)[C@H](C)NC(=O)[C@H](CCCCNC(=O)COCCOCCNC(=O)CC[C@H](NC(=O)CC[C@H](NC(=O)CCCCCCCCCCCCCCCCC(=O)O)C(=O)O)C(=O)O)NC(=O)[C@H](CCCN)NC(=O)[C@H](CC(=O)O)NC(=O)[C@H](CC(C)C)NC(=O)[C@](C)(CC(C)C)NC(=O)[C@H](CCC(N)=O)NC(=O)[C@H](CO)NC(=O)[C@H](Cc1ccncc1)NC(=O)[C@H](CC(=O)O)NC(=O)[C@H](CO)NC(=O)[C@@H](NC(=O)[C@H](Cc1ccccc1)NC(=O)[C@@H](NC(=O)CNC(=O)[C@H](CCC(N)=O)NC(=O)C(C)(C)NC(=O)[C@@H](N)Cc1ccc(O)cc1)[C@@H](C)O)[C@@H](C)O)C(=O)N[C@@H](CCC(=O)O)C(=O)N[C@@H](Cc1ccc(O)cc1)C(=O)N[C@@H](CC(C)C)C(=O)N[C@H](C(=O)N[C@@H](CCC(=O)O)C(=O)N[C@H](C)C(=O)NCC(=O)N1CCC[C@H]1C(=O)N[C@@H](CO)C(=O)N[C@@H](CO)C(=O)NCC(=O)N[C@@H](C)C(=O)N1CCC[C@H]1C(=O)N1CCC[C@H]1C(=O)N1CCC[C@H]1C(=O)N[C@@H](CO)C(=O)NCC(=O)N[C@@H](CO)C(=O)N[C@@H](CCC(=O)O)C(N)=O)[C@@H](C)CC` [Example 1022]: the EC50 on hGcgR (setting [5]) was determined as 6.93 nM; at human GcgR, 586 nM; on hGLP-1R [1] (setting [5]), 3.28 nM; on hGIPR [2], 27.9 nM; on hGLP-1R [3], 203 nM; at hGIPR [4] (setting [5]), 0.35 nM.

“H-Y[Aib]QGTFTSDFS[Dap][αMeL]LDKK([AEEA-γGlu-C18 diacid])AQ[Aib]AFIEYLIE[Aib]GPSSGAPPPSGS-NH2 [Example 800]”: the EC50 at hGcgR (setting [5]) turned out to be 21 nM; at human GcgR it was 2500 nM; at hGLP-1R [1] (setting [5]), 0.486 nM; on hGIPR [2], 40.2 nM; at hGLP-1R [3] it was 164 nM; on hGIPR [4] (setting [5]), 0.283 nM.
